Key:
[1] = system: synthetic DNA duplex (23 nt- 5'TCTTCAAGAATTCAGGTCCTGAT 3'); test: Circular dichroism (CD) spectra of synthetic DNA duplex with test compounds; assay type: binding; conditions: immediately after addition; DNA duplex 2µM, compound 20µM, DMSO 0.2%, PBS, 23°C, 200-320 nm; Figure 1
Method: The ability of the test compounds 1a and 1b to interact with DNA was tested by the circular dichroism (CD) technique.
1. For this purpose, samples were prepared in PBS buffer containing: […] of synthetic DNA duplex (23 nt- 5'TCTTCAAGAATTCAGGTCCTGAT 3') or DNA of bovine thymus (0.2 mg/ml) and test compounds at a concentration of 20µM or 40µM for synthetic DNA duplex sample and thymus DNA sample, respectively. The samples contained 0.2% or 0.4% DMSO (for synthetic DNA duplex sample and thymus DNA sample, respectively), which is a solvent of the test compounds.
2. CD spectra (in the range from 200 nm to 320 nm) were recorded immediately after addition of the test compounds as well as after 1.5 h incubation. The measurement was carried out at 23°C in a quartz cuvette (optical path length 0.5 cm) using a spectroscope CD6 (Jobin-Yvon, France).
3. CD spectra of DNA incubated with the test compounds were compared with the control spectrum (spectrum was recorded for a sample of DNA (2µM or 0.2 mg/ml) in the presence of DMSO (final concentration of 0.2% or 0.4%).

[2] = system: DNA plasmid pcDNA 3.1 HisC (8.2 kb); test: Digestion of plasmid DNA with restriction enzyme Bam H1 after incubation with compounds (agarose gel electrophoresis); assay type: biochemical; conditions: compound 2 or 20 µM, overnight at 37°C with 0.6 µg plasmid, then BamH1 2U/sample for 3 hours at 37°C; gel not shown
Method: The impact of compounds 1a and 1b has been tested on the digestion of DNA plasmid pcDNA 3.1 HisC (8.2 kb) with restriction enzyme Bam H1.
1. For this purpose, pcDNA 3.1 HisC plasmid DNA (0.6 µg) was dissolved in 1×BamH1 buffer and incubated overnight at 37°C with the following reference or test compounds:
The concentration of the reference and test compounds in each sample was 2 or 20 µM.
2. After overnight incubation, the reaction mixture was digested with BamH1 restriction enzyme (2U/sample) for 3 hours at 37°C. The total volume of the samples was 10 µL.
3. The reaction products were applied on 1% agarose gel and electrophoresis was performed in TAE buffer.

| SMILES | changes of CD spectrum of duplex DNA compared to control (duplex DNA + DMSO) [1] | interaction with plasmid DNA: resistance to digestion by the endonucleolytic enzyme Bam H1 [2] |
| --- | --- | --- |
| COc1cccc2c1C(=O)c1c(O)c3c(c(O)c1C2=O)C[C@@](O)(C(C)=O)C[C@@H]3O[C@H]1C[C@H](N)[C@H](O)[C@H](C)O1 [Daunorubicin, reference compound] | changing significantly its structure | increasing its resistance to digestion |
| COP(=O)(OC)/C(=C/c1ccc2ccc3cccc4ccc1c2c34)C(=O)c1ccc2c(c1)OCO2 [compound 1a] | changes compared to the control sample | increasing its resistance to digestion |
| O=C(/C(=C/c1ccc2ccc3cccc4ccc1c2c34)P(=O)(O)O)c1ccc2c(c1)OCO2 [compound 1b, (Z)-3-(benzo[d][1,3]dioxol-5-yl)-1-(pyrene-1-yl)-3-oxoprop-1-en-2-ylphosphonic acid] | changes compared to the control sample | increasing its resistance to digestion |

Source: patent publication EP2808337A1, “(E)-3-Aryl-3-oxoprop-1-enyl-2-phosphonic acid and its derivatives, methods for their preparation and their use” (Centrum Badan Molekularnych I Makromolekularnych Pan, priority 2013, dated 2014)
